Experimental data reported in US11643413B2, “9-(2-oxacycloalkyl)-9H-purine-2,6-diamine derivatives and their use for the treatment of skin disorders” (UNIVERZITA PALACKEHO V OLOMOUCI, priority 2017, dated 2023).

Assays:
[1] = tested on: Escherichia coli WP2 uvrA strain; test: Ames test (Bacterial Reverse Mutation Test), E. coli; assay type: cell-based; settings: 10-1000 μg per plate; without as well as with metabolic activation
Experimental: (§1) The test substance was (114) assayed for the mutagenicity by the Bacterial Reverse Mutation Test. The performed test was based on EU method B.13/14 Mutagenicity—Reverse mutation test using bacteria, which is analogous to the OECD Test Guideline No. 471. Four indicator Salmonella typhimurium strains TA 98, TA 100, TA 1535, TA 1537 and one indicator Escherichia coli WP2 uvrA strain were used. The test substance was dissolved in dimethylsulfoxide (DMSO) and assayed in doses of 10-1000 μg per plate, which were applied to plates in volume of 0.1 mL. Experiments were performed without as well as with metabolic activation with a supernatant of rat liver and a mixture of cofactors. The working procedure described is in accordance with the documents Method B.13/14, Mutagenicity: Reverse Mutation Test Using Bacteria, Council Regulation (EC) No. 440/2008. Published in O.J. L 142, 2008 and OECD Test Guideline 471, Bacterial Reverse Mutation Test. Adopted Jul. 21, 1997. In the arrangement given above, the test substance was non-mutagenic for all the used tester strains without as well as with metabolic activation.

[2] = Calcein AM cytotoxicity, B10A.4 (first column); settings: mouse, B10A.4 immortalized bone marrow macrophages
Source text: One of the parameters used, as the basis for cytotoxicity assays, is the metabolic activity of viable cells. For example, a microtiter assay, which uses the Calcein AM, is now widely used to quantitate cell proliferation and cytotoxicity. […] Because only metabolically active cells cleave Calcein AM, these assays detect viable cells exclusively. The quantity of reduced Calcein AM corresponds to the number of vital cells in the culture.
Mouse fibroblasts NIH3T3; mouse immortalized bone marrow macrophages B2.4 and B10A.4, and BJ (human foreskin fibroblasts) were used for routine screening of compounds. The cells were maintained in Nunc/Corning 80 cm^2 plastic tissue culture flasks and cultured in cell culture medium (DMEM with 5 g/l glucose, 2 mM glutamine, 100 U/ml penicillin, 100 μg/ml streptomycin, 10% fetal calf serum and sodium bicarbonate).
The cell suspensions that were prepared and diluted according to the particular cell type and the expected target cell density (2.500-30.000 cells per well based on cell growth characteristics) were added by pipette (80 μl) into 96/well microtiter plates. Inoculates were allowed a pre-incubation period of 24 hours at 37° C. and 5% CO2 for stabilisation. Four-fold dilutions of the intended test concentration were added at time zero in 20 μl aliquots to the microtiter plate wells. Usually, the compound tested was evaluated at six 4-fold dilutions. […] All compound concentrations were examined in duplicates. Incubations of cells with the tested compounds lasted for 72 hours at 37° C., in 5% CO2 atmosphere and 100% humidity. At the end of the incubation period, the cells were assayed by using Calcein AM. Ten microliters of the stock solution were pipetted into each well and incubated for 1 hour. Fluorescence (FD) was measured with the Labsystem FIA Reader Fluoroscan Ascent (UK).

NIH3T3 fibroblasts = test: Peroxidation of membrane lipids, MDA by TBA method; assay type: cell-based, mouse; settings: FW = fresh weight
Experimental: A typical symptom associated with aging is the direct consequence of increased concentrations of reactive oxygen species and lipid peroxidation. […] MDA levels were measured using thiobarbituric acid (TBA method). […] The crude extract was centrifuged at 10,000×g for 5 minutes and 100 μl aliquots of the supernatant were mixed with 100 μl of 0.5% (w/v) TBA containing 0.1% (w/v) trichloroacetic acid. The resulting solution was then incubated for 30 min at 95° C. The samples were rapidly cooled on ice and centrifuged for 5 minutes at 1000×g. […] The newly prepared derivatives of the general formula thus have a protective function against the negative effects of reactive oxygen species that accumulate strongly in the tissues.

[3] = tested on: Salmonella typhimurium strains TA 98, TA 100, TA 1535, TA 1537; test: Ames test (Bacterial Reverse Mutation Test), Salmonella; assay type: cell-based; settings: 10-1000 μg per plate; without as well as with metabolic activation
Experimental: as §1

CN(C)c1nc(NCc2ccco2)c2ncn(C3CCCCO3)c2n1 (stereo not shown) [Compound 114, 2-(Dimethylamino)-6-furfurylamino-9-(tetrahydro-2H-pyran-2-yl)-9H-purine]
mutagenicity [1]: non-mutagenic
IC50 at 72 h [2]: > 167 µM
MDA (NIH3T3 fibroblasts): 8.8 nmol/g FW
mutagenicity [3]: non-mutagenic
